Assay results reported in patent US12331045B2, “Substituted phenyl oxazolone compounds” (Bristol-Myers Squibb Company, priority 2023, dated 2025).

How the values were obtained:
Assay type in all cases: cell-based
IKZF3 Aiolos [1] = target: T1, IKZF3 Aiolos (Homo sapiens, UniProt Q96SW2+Q9UKT9); assay: Jurkat Cellular Degradation Assay; conditions: Jurkat cells, 72 h; for IKZF3 Aiolos max % deg. observed: flow cytometry, 100% = complete degradation
Method: (§1) Jurkat cells were plated at 80,000 cells/well in 40 μL RPMI+10% FBS in a 384-well cell culture plate prior to using acoustic dispensing technology for adding a compound of interest. Cell cultures were incubated for 72 h at 37° C., and 5% CO2. In order to facilitate analysis, cell cultures were spun down at 200 rpm for 5 min and the supernatant was discarded. After shaking the plate to dislodge the cell pellet, cells were resuspended in 50 qL of Fixation Buffer (eBioscience FoxP3 buffer set 00-5523-00) for 60 min at room temperature. After centrifuging and discarding the supernatant, cells were permeabilized with 50 μL of Permeabilization buffer (eBioscience FoxP3 buffer set 00-5523-00) for 10 min at room temperature. Following permeabilization, cells were spun down and the supernatant was replaced with 20 μL fluorescently labelled antibodies against Helios, Ikaros and Aiolos or corresponding Isotype controls in 1-Penneabilization buffer (Ikaros-Alexa488 [Biolegend, Cat #368408, 1:50], Helios-PE [CST, Cat #29360, 1:50], Aiolos-Alexa647 [Biolegend, Cat #371106 Biolegend, 1:25]) and staining reactions were incubated for 1 h at room temperature while protected from light. Subsequently, 30 μL of 1× Permeabilization buffer was added prior to centrifuging the cells and discarding the supernatant. Stained cells were resuspended in 25 μL of flow cytometry staining buffer [PBS+0.2% bovine serum albumin (BSA)] and analyzed using an Intellicyt Ique Plus flow cytometer.

IKZF1 Ikaros [2] = target: T2, IKZF1 Ikaros (Homo sapiens, UniProt Q13422+Q96SW2); assay: Jurkat Cellular Degradation Assay; set-up: HELIOS-PE-Cy7, EOS-PE, IKAROS-PECF594, AIOLOS-AF647; endogenous in cells; conditions: Jurkat cells, 72 h; for IKZF1 Ikaros max % deg. observed: flow cytometry, 100% = complete degradation
T2 sequence (Q13422 whole entry): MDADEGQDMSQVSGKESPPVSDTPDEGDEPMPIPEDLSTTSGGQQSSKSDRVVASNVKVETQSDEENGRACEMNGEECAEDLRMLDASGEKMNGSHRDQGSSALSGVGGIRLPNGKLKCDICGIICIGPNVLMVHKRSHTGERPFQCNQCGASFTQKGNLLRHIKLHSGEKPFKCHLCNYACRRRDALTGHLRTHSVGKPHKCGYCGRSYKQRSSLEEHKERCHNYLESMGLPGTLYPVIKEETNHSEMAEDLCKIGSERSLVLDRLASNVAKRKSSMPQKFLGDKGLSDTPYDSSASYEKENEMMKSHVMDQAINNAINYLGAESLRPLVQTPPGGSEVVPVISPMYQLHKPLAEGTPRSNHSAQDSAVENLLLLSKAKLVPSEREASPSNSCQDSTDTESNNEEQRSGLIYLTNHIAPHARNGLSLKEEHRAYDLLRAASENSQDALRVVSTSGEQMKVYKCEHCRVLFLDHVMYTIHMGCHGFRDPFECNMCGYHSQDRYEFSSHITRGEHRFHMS
T2 sequence (Q96SW2 whole entry): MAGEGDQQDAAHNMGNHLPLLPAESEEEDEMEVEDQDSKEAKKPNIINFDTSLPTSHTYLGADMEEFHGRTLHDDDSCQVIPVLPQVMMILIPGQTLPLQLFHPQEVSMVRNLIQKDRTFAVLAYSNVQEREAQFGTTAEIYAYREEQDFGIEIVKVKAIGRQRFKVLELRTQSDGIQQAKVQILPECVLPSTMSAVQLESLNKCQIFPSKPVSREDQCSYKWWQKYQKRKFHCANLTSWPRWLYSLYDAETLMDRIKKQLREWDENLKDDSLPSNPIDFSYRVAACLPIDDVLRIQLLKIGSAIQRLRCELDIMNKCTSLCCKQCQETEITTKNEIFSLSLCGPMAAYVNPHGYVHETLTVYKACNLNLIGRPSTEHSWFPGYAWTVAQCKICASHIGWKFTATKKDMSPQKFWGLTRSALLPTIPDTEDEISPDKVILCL
T2 sequence (Q16531 whole entry partner): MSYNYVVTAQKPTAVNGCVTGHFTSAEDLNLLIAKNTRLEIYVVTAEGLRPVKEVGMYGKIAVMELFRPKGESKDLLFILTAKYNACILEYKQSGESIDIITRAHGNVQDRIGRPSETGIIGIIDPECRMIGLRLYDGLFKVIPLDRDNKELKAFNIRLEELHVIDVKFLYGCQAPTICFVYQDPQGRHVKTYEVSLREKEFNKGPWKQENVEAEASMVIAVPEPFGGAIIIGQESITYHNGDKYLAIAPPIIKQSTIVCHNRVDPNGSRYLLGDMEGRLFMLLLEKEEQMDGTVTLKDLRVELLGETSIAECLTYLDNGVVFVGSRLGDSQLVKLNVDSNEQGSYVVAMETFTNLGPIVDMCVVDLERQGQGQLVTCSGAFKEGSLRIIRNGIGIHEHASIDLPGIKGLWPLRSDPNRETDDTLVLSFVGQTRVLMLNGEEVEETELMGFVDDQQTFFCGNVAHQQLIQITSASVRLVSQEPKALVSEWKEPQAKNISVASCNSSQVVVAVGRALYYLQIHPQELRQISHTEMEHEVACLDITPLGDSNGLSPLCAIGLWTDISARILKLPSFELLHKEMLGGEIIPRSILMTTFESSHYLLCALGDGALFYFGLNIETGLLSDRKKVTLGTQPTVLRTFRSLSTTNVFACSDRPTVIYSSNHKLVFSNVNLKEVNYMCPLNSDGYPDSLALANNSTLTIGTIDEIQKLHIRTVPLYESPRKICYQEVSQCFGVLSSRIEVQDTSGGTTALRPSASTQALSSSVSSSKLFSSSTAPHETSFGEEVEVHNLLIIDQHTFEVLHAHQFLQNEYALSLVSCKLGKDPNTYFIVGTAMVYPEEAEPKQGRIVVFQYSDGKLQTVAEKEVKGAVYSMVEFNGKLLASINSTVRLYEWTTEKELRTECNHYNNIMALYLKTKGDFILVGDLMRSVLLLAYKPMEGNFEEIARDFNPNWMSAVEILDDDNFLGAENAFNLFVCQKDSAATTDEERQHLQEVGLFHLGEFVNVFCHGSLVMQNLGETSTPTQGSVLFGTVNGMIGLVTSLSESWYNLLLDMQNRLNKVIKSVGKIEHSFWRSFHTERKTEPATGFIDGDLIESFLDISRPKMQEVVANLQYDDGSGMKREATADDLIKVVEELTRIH
Method: as §1

IKZF4 Eos = target: T3, IKZF4 Eos (Homo sapiens, UniProt Q96SW2+Q9H2S9); assay: Human T Regulatory Cells Reprogramming Assay; conditions: sorted human Treg cells, 12-13 days; 50% reduction vs DMSO
T3 construct: endogenous in cells; host or cells: primary human CD4+CD127lowCD25+ Treg cells sorted from healthy-donor leukopaks
T3 sequence (Q9H2S9 whole entry): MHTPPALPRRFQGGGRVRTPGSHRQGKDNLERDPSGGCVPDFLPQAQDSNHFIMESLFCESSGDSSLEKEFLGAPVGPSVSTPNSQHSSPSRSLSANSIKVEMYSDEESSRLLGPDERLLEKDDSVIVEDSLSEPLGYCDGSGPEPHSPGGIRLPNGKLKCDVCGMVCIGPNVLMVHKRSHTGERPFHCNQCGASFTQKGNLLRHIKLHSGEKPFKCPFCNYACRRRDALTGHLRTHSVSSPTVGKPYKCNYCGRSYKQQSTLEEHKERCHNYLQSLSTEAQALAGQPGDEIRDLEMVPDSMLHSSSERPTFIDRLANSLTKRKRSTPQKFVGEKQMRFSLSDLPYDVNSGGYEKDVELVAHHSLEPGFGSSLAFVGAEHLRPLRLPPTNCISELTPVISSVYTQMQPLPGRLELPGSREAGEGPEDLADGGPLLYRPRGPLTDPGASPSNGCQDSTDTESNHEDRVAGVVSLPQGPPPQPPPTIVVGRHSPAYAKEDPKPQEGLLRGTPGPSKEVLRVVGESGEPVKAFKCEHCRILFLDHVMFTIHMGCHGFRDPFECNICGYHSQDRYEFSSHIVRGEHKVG
T3 sequence (Q96SW2 whole entry): as the sequence (Q96SW2 whole entry) above
T3 sequence (Q16531 whole entry partner): as the sequence (Q16531 whole entry partner) above
Method: (§2) Human CD4^+ T cells were isolated from fresh healthy leukopaks (Stemcell Technologies) using the RosetteSep Human CD4^+ T cell enrichment cocktail (Stemcell Technologies) and Ficoll density gradient centrifugation. Leukopaks were diluted with an equal volume of phosphate-buffered saline (PBS [Gibco]) supplemented with 2% fetal bovine serum (FBS, VWR Lifescience) and incubated with RosetteSep Human CD4^+ T cell enrichment cocktail for 20 minutes before layering on Ficoll-Paque Plus solution (GE Health Care). The cell-rich interface layer was harvested and washed twice with PBS supplemented with 2% FBS. Regulatory T cells were then isolated manually using the EasySep Human CD4^+CD127^lowCD25^+ Regulatory T cell isolation kit (Stemcell Technologies) according to the manufacturer's instructions. Cells were rested overnight in Roswell Park Memorial Institute (RPMI) 1640 media (Gibco) supplemented with 10% FBS, Pen/Strep (Gibco), MEM-NEAA (Gibco), and sodium pyruvate (Gibco) in a humidified incubator (37° C., 5% CO2). […]
(§3) For flow cytometry staining, cells were washed twice with flow cytometry staining buffer (Thermo Fisher) and incubated in Human Tru-stain Fc block (Biolegend) for 10 minutes before adding eFluor780 viability dye (Thermo Fisher) and surface marker antibody cocktail for 30 minutes at 4° C. […] Data were analyzed using FlowJo version 10 and GraphPad Prism Software.

IKZF2 Helios [3] = target: T4, IKZF2 Helios (Homo sapiens, UniProt Q96SW2+Q9UKS7); assay: Jurkat Cellular Degradation Assay; set-up: endogenous in cells; conditions: Jurkat cells, 72 h; concentration reducing protein by 50% vs DMSO
T4 sequence (Q9UKS7 whole entry): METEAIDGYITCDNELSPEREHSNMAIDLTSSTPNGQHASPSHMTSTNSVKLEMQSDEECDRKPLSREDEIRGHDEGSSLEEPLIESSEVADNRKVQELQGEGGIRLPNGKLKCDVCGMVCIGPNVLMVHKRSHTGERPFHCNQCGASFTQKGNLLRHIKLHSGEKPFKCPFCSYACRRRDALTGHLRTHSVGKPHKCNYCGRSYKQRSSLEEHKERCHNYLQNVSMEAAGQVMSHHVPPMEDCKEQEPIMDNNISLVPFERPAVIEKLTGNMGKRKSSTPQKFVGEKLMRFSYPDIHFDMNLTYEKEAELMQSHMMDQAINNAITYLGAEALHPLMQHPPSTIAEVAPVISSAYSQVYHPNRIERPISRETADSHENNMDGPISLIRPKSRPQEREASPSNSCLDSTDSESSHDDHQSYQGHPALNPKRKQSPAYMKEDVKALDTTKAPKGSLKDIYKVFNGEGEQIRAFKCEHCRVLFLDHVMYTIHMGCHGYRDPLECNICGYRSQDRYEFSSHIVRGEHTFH
T4 sequence (Q96SW2 whole entry): as the sequence (Q96SW2 whole entry) above
T4 sequence (Q16531 whole entry partner): as the sequence (Q16531 whole entry partner) above
Method: as §1, with “Subsequently, 30 μL of 1× Permeabilization buffer was added prior to centrifuging the cells and discarding the supernatant.” left out

IKZF1 Ikaros [4] = target: T2, IKZF1 Ikaros; assay: Human T Regulatory Cells Degradation Assay; set-up: HELIOS-PE-Cy7, EOS-PE, IKAROS-PECF594, AIOLOS-AF647; endogenous in cells; conditions: 20 hours
IKZF2 Helios [5] = target: T4, IKZF2 Helios; assay: Human T Regulatory Cells Degradation Assay; set-up: endogenous in cells; host or cells: primary human CD4+CD127lowCD25+ Treg cells sorted from healthy-donor leukopaks; conditions: 20 hours
Method: Cryopreserved human T regulatory cells were thawed in RPMI+10% FBS+20 ng/mL IL-2. After being spun at 1200 rpm for 5 mins, the cells were resuspended in RPMI+10% FBS+20 ng/mL and rested at 37° C. with 5% CO2 for 3 hours. The cells were then plated at 40,000 cells/well in 40 μL RPMI+10% FBS+20 ng/mL human IL-2 in a 384 well cell culture plate prior to using acoustic dispensing technology (ECHO 555) for adding compounds of interest. Cell cultures were incubated for 20 hours at 37° C., and 5% CO2. In order to facilitate analysis, cell cultures were spun down at 1200 rpm for 5 minutes and the supernatant was discarded using an EL406 plate washer. After washing three times with 70 μL PBS, cell pellets were resuspended in 50 μL of near IR viability staining solution (Life Technologies, Cat #L34975) and incubated for 30 minutes on ice protected from light. Cells were washed three times with […] PBS+0.5% BSA using an EL406 plate washer. After shaking the plate to dislodge the cell pellet, cells were resuspended in 50 μL of Fixation Buffer (eBioScience FoxP3 buffer set 00-5523-00) for 60 minutes at room temperature. […] Stained cells were resuspended in 30 μL of flow cytometry staining buffer (PBS+0.5% BSA) and analyzed using an Intellicyt Ique Plus flow cytometer.

IKZF2 Helios [6] = target: T4, IKZF2 Helios; assay: Human T Regulatory Cells Reprogramming Assay; set-up: endogenous in cells; host or cells: primary human CD4+CD127lowCD25+ Treg cells sorted from healthy-donor leukopaks; conditions: sorted human Treg cells, 12-13 days; 50% reduction vs DMSO
Method: as §2, §3

IKZF1 Ikaros [7] = target: T2, IKZF1 Ikaros; assay: Human CD8+ T Cell Reprogramming Assay (method headed Human CD8+ T Cell Degradation Assay); set-up: HELIOS-PE-Cy7, EOS-PE, IKAROS-PECF594, AIOLOS-AF647; endogenous in cells; host or cells: healthy-donor human PBMC; CD8+ T cells analysed by flow cytometry; conditions: CD8+ T cells in human PBMC, 24 hours; for IKZF1 Ikaros Maximum Observed Degradation: flow cytometry; for DC50: 50% reduction vs DMSO
Method: (§4) Cryopreserved healthy donor human peripheral blood mononuclear cells (PBMC; obtained from Stemcell Technologies or Blood Works Northwest) from two healthy donors were thawed and seeded at 500,000 cells/well of 96-well round bottom plates in RPMI 1640 media (Gibco) supplemented with 10% FBS, Pen/Strep (Gibco), MEM-NEAA (Gibco), and sodium pyruvate (Gibco). Cells were treated with titrated doses of compound for 24 hours at 37° C., 5% CO2 before analyzing by flow cytometry.
(§5) For flow cytometry staining, cells were washed twice with flow cytometry staining buffer (Thermo Fisher) and incubated in Human Tru-stain Fc block (Biolegend) for 10 minutes before adding eFluor780 viability dye (Thermo Fisher) and surface marker antibody cocktail containing LD-eFluor780, CD3-BUV-395, CD4-BUV805, CD8-FITC, CD25-BV605, FoxP3-BV421, HELIOS-PE-Cy7, EOS-PE, IKAROS-PECF594, AIOLOS-AF647 for 30 minutes at 4° C. Cells were then fixed and permeabilized by incubation with permeabilization buffer (eBioscience FoxP3 buffer set 00-5523-00) for 30 minutes at 4° C., as per the kit manufacturer's instructions. Cells were washed twice with the Perm/Wash buffer suppled in the kit as per the manufacturer's instructions and incubated overnight at 4° C. with an intracellular antibody cocktail comprised of antibodies specific for the transcription factors shown in Table C. Cells were washed twice with Perm/Wash buffer and resuspended in flow cytometry staining buffer (Thermo Fisher) prior to acquisition. Sample acquisition and analysis was performed using a BD LSRFortessa (BD Biosciences) flow cytometer. Single stain controls for each fluorochrome were prepared using UltraComp eBead Compensation Beads (Thermo Fisher). Data were analyzed using FlowJo version 10 and GraphPad Prism Software.

IKZF3 Aiolos [8] = target: T1, IKZF3 Aiolos; assay: as above; set-up: HELIOS-PE-Cy7, EOS-PE, IKAROS-PECF594, AIOLOS-AF647; endogenous in cells; host or cells: healthy-donor human PBMC; CD8+ T cells analysed by flow cytometry; conditions: CD8+ T cells in human PBMC, 24 hours; for IKZF3 Aiolos Maximum Observed Degradation: flow cytometry; for DC50: 50% reduction vs DMSO
Method: as §4, §5

[9] = concentration reducing protein by 50% vs DMSO

T1 sequence (Q9UKT9 whole entry): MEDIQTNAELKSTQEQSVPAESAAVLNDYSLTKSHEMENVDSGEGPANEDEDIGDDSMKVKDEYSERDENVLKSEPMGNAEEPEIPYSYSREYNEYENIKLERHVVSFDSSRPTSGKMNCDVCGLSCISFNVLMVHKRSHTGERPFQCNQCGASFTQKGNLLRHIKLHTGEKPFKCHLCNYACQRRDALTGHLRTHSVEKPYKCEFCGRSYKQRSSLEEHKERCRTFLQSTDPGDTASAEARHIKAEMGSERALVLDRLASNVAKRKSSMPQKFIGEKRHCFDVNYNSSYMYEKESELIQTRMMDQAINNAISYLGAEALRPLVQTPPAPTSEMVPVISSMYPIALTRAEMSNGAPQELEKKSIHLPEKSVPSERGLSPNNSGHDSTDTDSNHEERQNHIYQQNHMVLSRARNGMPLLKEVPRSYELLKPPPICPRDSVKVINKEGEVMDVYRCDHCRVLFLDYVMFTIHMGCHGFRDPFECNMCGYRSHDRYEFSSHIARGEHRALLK
T1 sequence (Q96SW2 whole entry): as the sequence (Q96SW2 whole entry) above
T1 sequence (Q16531 whole entry partner): as the sequence (Q16531 whole entry partner) above

Row | IKZF3 Aiolos max % deg. observed (IKZF3 Aiolos [1]) | IKZF1 Ikaros max % deg. observed (IKZF1 Ikaros [2]) | DC50 (IKZF3 Aiolos [1]; [9]) | DC50 (IKZF4 Eos) | DC50 (IKZF2 Helios [3]) | DC50 (IKZF1 Ikaros [2]; [9]) | DC50 (IKZF1 Ikaros [4]; 50% reduction vs DMSO) | IKZF1 Ikaros max % deg. observed (IKZF1 Ikaros [4]; flow cytometry) | DC50 (IKZF2 Helios [5]; 50% reduction vs DMSO) | IKZF2 Helios max % deg. observed (IKZF2 Helios [5]; flow cytometry) | DC50 (IKZF2 Helios [6]) | IKZF1 Ikaros Maximum Observed Degradation (IKZF1 Ikaros [7]) | DC50 (IKZF1 Ikaros [7]) | IKZF3 Aiolos Maximum Observed Degradation (IKZF3 Aiolos [8]) | DC50 (IKZF3 Aiolos [8]) | Structure (SMILES)
1 | 46% | 57% | – | – | – | – | – | – | – | – | – | – | – | – | – | O=C1CCC(n2cc(-c3ccccc3)oc2=O)C(=O)N1 (stereo not drawn) [Comparative Compound A, 3-(2-oxo-5-phenyloxazol-3(2H)-yl)piperidine-2,6-dione, reference compound]
2 | 15% | – | – | – | – | – | – | – | – | – | – | – | – | – | – | O=C1CCC(n2cc(-c3ccc(Br)cc3F)oc2=O)C(=O)N1 (stereo not drawn) [Comparative Compound B, 3-(5-(4-bromo-2-fluorophenyl)-2-oxooxazol-3(2H)-yl)piperidine-2,6-dione, reference compound]
3 | 54% | 66% | 4920 nM | 1.5 nM | 13.6 nM | 1080 nM | 5470 nM | 55% | 5.2 nM | 99% | 85 nM | 74% | 102 nM | 77% | 19 nM | Cc1cc(-c2ccc(-c3cn(C4CCC(=O)NC4=O)c(=O)o3)c(F)c2)nc(N)c1C (stereo not drawn) [Example 1, 3-(5-(4-(6-Amino-4,5-dimethylpyridin-2-yl)-2-fluorophenyl)-2-oxooxazol-3(2H)-yl) piperidine-2,6-dione]
4 | – | – | – | 0.63 nM | – | – | – | – | – | – | 42 nM | 66% | 139 nM | 71% | 26 nM | [2H]C1([2H])C(=O)NC(=O)C([2H])(n2cc(-c3ccc(-c4cc(C)c(C)c(N)n4)cc3F)oc2=O)C1([2H])[2H] (stereo not drawn) [Example 2, 3-(5-(4-(6-amino-4,5-dimethylpyridin-2-yl)-2-fluorophenyl)-2-oxooxazol-3(2H)-yl) piperidine-2,6-dione-3,4,4,5,5-D5]
